Test results from paper PMC5641094, “A peptide antagonist of Prep1-p160 interaction improves ceramide-induced insulin resistance in skeletal muscle cells” (Oncotarget, 2017).

Target: T1, Prep1/p160 complex (Rattus norvegicus, UniProt O35821)
T1 construct: endogenous in cells; host or cells: L6 rat skeletal muscle cells
T1 sequence (O35821 1-1344): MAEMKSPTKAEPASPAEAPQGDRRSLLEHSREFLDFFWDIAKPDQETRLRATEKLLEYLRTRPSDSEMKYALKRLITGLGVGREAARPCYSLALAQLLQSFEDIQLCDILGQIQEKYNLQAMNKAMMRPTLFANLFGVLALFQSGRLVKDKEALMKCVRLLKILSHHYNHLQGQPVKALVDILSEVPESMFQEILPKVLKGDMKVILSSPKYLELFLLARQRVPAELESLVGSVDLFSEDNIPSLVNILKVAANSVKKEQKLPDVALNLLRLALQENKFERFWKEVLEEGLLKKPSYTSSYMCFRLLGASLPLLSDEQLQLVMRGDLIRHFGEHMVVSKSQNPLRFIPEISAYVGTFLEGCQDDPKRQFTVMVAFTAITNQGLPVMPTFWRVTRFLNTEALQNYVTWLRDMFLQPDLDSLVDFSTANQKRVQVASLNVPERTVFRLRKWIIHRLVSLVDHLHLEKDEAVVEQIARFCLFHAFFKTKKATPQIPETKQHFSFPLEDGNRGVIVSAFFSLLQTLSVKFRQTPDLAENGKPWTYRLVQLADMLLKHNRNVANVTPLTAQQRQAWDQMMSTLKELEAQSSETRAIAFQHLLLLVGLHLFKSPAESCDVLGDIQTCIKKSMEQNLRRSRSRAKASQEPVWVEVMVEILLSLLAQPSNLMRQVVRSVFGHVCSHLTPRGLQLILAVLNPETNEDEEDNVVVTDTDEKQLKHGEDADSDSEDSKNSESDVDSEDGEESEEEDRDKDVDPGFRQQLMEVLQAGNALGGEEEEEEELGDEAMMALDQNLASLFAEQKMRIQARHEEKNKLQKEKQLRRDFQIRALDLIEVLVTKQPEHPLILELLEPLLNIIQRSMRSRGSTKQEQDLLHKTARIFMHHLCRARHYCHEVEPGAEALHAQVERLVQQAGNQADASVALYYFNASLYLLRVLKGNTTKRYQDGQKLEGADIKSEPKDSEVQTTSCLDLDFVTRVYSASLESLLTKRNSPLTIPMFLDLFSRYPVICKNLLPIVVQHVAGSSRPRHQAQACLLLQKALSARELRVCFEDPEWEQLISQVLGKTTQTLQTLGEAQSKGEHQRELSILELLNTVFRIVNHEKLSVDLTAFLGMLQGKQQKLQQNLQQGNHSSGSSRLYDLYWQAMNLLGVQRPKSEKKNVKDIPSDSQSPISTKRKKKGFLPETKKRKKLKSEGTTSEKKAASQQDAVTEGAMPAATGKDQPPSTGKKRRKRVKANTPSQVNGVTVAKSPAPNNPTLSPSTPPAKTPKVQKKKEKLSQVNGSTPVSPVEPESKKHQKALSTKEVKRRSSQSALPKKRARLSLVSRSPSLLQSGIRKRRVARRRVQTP
Assay: Prep1-p160 co-immunoprecipitation in L6 cells
Assay type: cell-based
Experimental: Figure 2 Effect of ceramides on Prep1 and p160 mRNA expression and of Prep1-p160 coprecipitation L6 cells were treated with C2cer (10μM) for 18h and Prep1 (A) or p160 (B) mRNA levels were analyzed by real-time RT-PCR analysis. Data were normalized by the amount of GAPDH mRNA, used as internal control. Bars represent the mean ± SD of three independent experiments, each performed in triplicate. (C) L6 cells were treated with cycloheximide (CHX) at 40μg/mL concentration for 18h and the lysates were analyzed by Western blot with anti-p160 and beta-actin. The autoradiograph shown is representative of three different experiments and subjected to densitometric analysis. […]
Figure 3 Design and in vitro effects of Prep1(54-72) peptide on Prep1/p160 association (A) Binding curves of Prep1(59-72) and Prep1(54-72) peptides to p160_20-160 by ELISA-like assays. […] (C) L6 cells were incubated with increasing concentrations of the fluorescein-conjugated peptide (FITC-Prep1(54-72)) and peptide uptake was detected by FACS analysis of fluorescein-labeled cells. […] Protein lysates were immunoprecipitated with Prep1 antibodies and analyzed by Western blot using antibodies for p160 or for Prep1. […] The blots were detected by ECL and autoradiography. […]
Total cell lysates were obtained and separated by SDS-PAGE. […] The protein concentrations in the cell lysates were measured using a Bio-Rad DC (detergent compatible) assay. […]

## CCCCCCCCCCCCC/C=C/[C@@H](O)[C@H](CO)NC(C)=O [C2cer, D-erythro-Sphingosine, N-Acetyl-, reference compound]
C2cer
  induction of Prep1-p160 association: 80%

## Ac-KQAIYRHPLFPLLALLFEK-NH2 [Prep1(54-72)]
C2cer 10μM 18h, incubated with Prep1(54-72)
  effect on ceramide-stimulated Prep1-p160 co-precipitation: almost completely reverted
